Test results reported in patent US5196094A, “Separation of 1,1,1-trichloroethane from the lower alcohols by extractive distillation” (priority 1991, dated 1993).

Legend:
[1] = Vapor-liquid equilibrium still, separation of 1,1,1-trichloroethane from methanol; assay type: physicochemical
[2] = Vapor-liquid equilibrium still, separation of 1,1,1-trichloroethane from n-propanol; assay type: physicochemical
[3] = Vapor-liquid equilibrium still, separation of 1,1,1-trichloroethane from 2-butanol; assay type: physicochemical
[4] = Vapor-liquid equilibrium still, separation of 1,1,1-trichloroethane from t-butanol; assay type: physicochemical
[5] = Vapor-liquid equilibrium still, separation of 1,1,1-trichloroethane from ethanol; assay type: physicochemical; settings: 1,1,1-trichloroethane from ethanol
[6] = Vapor-liquid equilibrium still, separation of 1,1,1-trichloroethane from isopropanol; assay type: physicochemical
[7] = minimum boiling azeotrope with 1,1,1-trichloroethane; cited from earlier work
[8] = 1,1,1-trichloroethane from 2-butanol, vapor-liquid equilibrium still
[9] = 1,1,1-trichloroethane from t-butanol
[10] = * Brings out t-Butanol as Overhead
[11] = 1,1,1-trichloroethane from n-propanol, vapor-liquid equilibrium still

OCCOc1ccccc1 [Ethylene glycol phenyl ether]
Relative Volatility [1]: 3.1
Relative Volatility [2]: 2.5
Relative Volatility [3, 8]: 2.0
Relative Volatility [4, 9]: 1.3

CCCCCCO [Hexyl alcohol]
Relative Volatility [2]: 2.5
Relative Volatility [4, 10]: 1.2

CC(C)CCO [Isoamyl alcohol]
Relative Volatility [1]: 2.2
Relative Volatility [2]: 3.6
Relative Volatility [3]: 1.6
Relative Volatility [4, 9]: 3.0

CC(C)CO [Isobutanol]
Relative Volatility [2]: 2.2
Relative Volatility [5]: 1.35
Relative Volatility [4, 9]: 1.2

CC(C)COC(=O)C(C)C [Isobutyl isobutyrate]
Relative Volatility [5]: 3.3
Relative Volatility [3]: 1.5
Relative Volatility [6]: 1.3

CC1=CC(=O)CC(C)(C)C1 [Isophorone]
Relative Volatility [5]: 1.55
Relative Volatility [3, 8]: 2.0
Relative Volatility [4, 9]: 1.4

COC(=O)c1ccccc1O [Methyl salicylate]
Relative Volatility [2]: 1.3
Relative Volatility [5]: 1.55
Relative Volatility [3]: 1.3
Relative Volatility ([6]; * Brings Isopropanol out as Overhead, vapor-liquid equilibrium still): 1.45
Relative Volatility [4, 10]: 1.3

CC1COC(=O)O1 (centres unmarked) [Propylene carbonate]
Relative Volatility [2, 11]: 2.0
Relative Volatility [5]: 2.2
Relative Volatility [3, 8]: 2.4
Relative Volatility [4, 9]: 1.5

CC(C)COCC(C)O (centres unmarked) [Propylene glycol isobutyl ether]
Relative Volatility [1]: 2.5
Relative Volatility [3, 8]: 2.4
Relative Volatility [4, 9]: 1.4

COCC(C)O (centres unmarked) [Propylene glycol methyl ether]
Relative Volatility ([1]; 1,1,1-trichloroethane from methanol, vapor-liquid equilibrium still): 3.1
Relative Volatility [2, 11]: 4.2
Relative Volatility [5]: 2.0
Relative Volatility [3, 8]: 3.9
Relative Volatility ([6]; 1,1,1-trichloroethane from isopropanol, vapor-liquid equilibrium still): 2.3
Relative Volatility [4, 9]: 1.7

CC(O)COc1ccccc1 (centres unmarked) [Propylene glycol phenyl ether]
Relative Volatility [1]: 3.1
Relative Volatility [2, 11]: 3.4
Relative Volatility [3, 8]: 2.4
Relative Volatility [6]: 1.6

O=S1(=O)CCCC1 [Sulfolane]
Relative Volatility [5]: 2.2
Relative Volatility [3]: 2.7
Relative Volatility [6]: 1.4
Relative Volatility [4, 9]: 1.4

CCO [ethanol]
1,1,1-trichloroethane content of azeotrope [7]: 75%
azeotrope boiling point [7]: 63 °C

CC(C)O [isopropanol]
1,1,1-trichloroethane content of azeotrope [7]: 80%

CO [methanol]
1,1,1-trichloroethane content of azeotrope [7]: 20%
azeotrope boiling point [7]: 61 °C

CCCO [n-propanol]
1,1,1-trichloroethane content of azeotrope [7]: 85%

CC(C)(C)O [t-butanol]
1,1,1-trichloroethane content of azeotrope [7]: 80%
azeotrope boiling point [7]: 66 °C
